The results in this text go back to article PMC9854566, “Antiamnesic Effects of Feralolide Isolated from Aloe vera Resin Miller against Learning Impairments Induced in Mice” (Antioxidants, 2023).

The target in assay [1] is T1, butyrylcholinesterase (BuChE), equine (Equus caballus, UniProt P81908).
T1 construct: gene BCHE
The assay can be described thus: Ellman spectrophotometric assay ([…] nm). The assay is classed as biochemical.

Assay [2] addresses acetylcholinesterase (AChE), electric eel, type VI-S (Electrophorus electricus, UniProt O42275). The assay can be described thus: Ellman spectrophotometric assay ([…] nm). The assay is classed as biochemical.

Sequence of acetylcholinesterase (AChE), electric eel, type VI-S (O42275 24-633): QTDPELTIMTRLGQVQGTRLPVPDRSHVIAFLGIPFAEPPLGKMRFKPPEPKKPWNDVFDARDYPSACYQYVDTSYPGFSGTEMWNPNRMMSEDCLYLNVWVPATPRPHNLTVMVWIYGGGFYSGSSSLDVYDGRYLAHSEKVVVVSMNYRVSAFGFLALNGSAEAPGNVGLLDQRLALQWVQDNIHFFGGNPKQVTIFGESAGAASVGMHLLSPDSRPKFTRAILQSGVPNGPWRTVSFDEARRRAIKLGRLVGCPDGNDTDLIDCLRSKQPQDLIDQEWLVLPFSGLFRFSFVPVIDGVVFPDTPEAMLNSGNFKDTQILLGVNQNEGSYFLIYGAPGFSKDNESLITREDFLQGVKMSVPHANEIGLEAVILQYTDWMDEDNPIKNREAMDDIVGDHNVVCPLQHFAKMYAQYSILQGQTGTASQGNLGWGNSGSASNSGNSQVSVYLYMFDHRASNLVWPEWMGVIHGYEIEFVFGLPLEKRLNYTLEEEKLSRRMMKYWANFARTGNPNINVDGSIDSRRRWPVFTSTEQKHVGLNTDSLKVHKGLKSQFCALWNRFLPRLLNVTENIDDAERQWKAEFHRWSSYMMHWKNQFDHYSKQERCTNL
T1 sequence (P81908 whole entry): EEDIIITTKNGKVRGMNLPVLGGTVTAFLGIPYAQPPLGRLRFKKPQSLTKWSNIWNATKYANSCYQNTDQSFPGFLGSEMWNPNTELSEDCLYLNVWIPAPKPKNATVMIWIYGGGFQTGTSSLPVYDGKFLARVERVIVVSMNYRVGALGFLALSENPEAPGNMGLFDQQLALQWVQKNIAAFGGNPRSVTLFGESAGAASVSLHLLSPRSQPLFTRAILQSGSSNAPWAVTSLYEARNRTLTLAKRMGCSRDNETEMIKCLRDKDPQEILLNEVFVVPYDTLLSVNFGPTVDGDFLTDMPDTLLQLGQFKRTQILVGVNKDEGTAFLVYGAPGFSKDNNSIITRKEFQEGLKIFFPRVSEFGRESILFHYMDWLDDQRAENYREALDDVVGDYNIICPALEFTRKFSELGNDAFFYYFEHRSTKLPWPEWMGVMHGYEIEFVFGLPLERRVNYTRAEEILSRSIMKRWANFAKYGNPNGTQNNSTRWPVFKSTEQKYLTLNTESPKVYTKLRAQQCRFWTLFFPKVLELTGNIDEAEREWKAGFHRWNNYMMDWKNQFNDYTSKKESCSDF

For `CC(=O)c1c(O)cc(O)cc1C[C@@H]1Cc2cc(O)cc(O)c2C(=O)O1` [feralolide], the concentration for half-maximal inhibition (IC50) in assay [1] is 151 µM; in assay [2], 160 µM.
